In data set [1] the test system is Pseudomonas aeruginosa PAO1 Δ6-Pore. Put plainly: MIC, permeabilized bacteria. In kind it is cell-based.
Data set [2] has as its system Acinetobacter baumannii ATCC17978. Nature of the data set: MIC, 2-fold broth dilution. Conditions: WT. It counts as cell-based. The protocol: (§1) Luria-Bertani (LB) broth (10 g of Bacto tryptone, 5 g of yeast extract, and 5 g of NaCl per liter; pH 7.0) was used for bacterial growth. The bacterial strains were inoculated overnight at 37° C. Cells were 1:100 subcultured into a fresh 30-ml volume of LB medium and grown at 37° C. to an optical density at 600 nm (OD600) of 0.3. When appropriate, the cells cultures were supplemented with 0.1% L-arabinose or 0.1 mM isopropyl β-d-1-thiogalactopyranoside (IPTG), to induce expression of the “Pore” protein. The cells were cultured up to OD600 of 1.0. The test compounds were dissolved in dimethylsulfoxide (DMSO) to make the final 10 mM stock solution. The minimal inhibitory concentrations (MIC) were determined using the 2-fold broth dilution method (1). The OD600 was measured using a Tecan Spark 10 M microplate reader.
For orientation: Dilution methods test growth across graded concentrations, often in twofold steps.

In data set [3] the test system is Klebsiella oxytoca ATCC700324. Nature of the data set: MIC, 2-fold broth dilution. In kind it is cell-based. The note with it: WT. The protocol: as §1
For data set [4], the system named is Klebsiella pneumoniae ATCC13883. Put plainly: MIC, 2-fold broth dilution. In kind it is cell-based. The note with it: WT. The method, then:
as §1

Data set [5] deals with Enterobacter cloacae ATCC13047. Put plainly: MIC, 2-fold broth dilution. It counts as cell-based. The note with it: WT. The method, then:
as §1

For data set [6], the system named is Klebsiella aerogenes ATCC13048. Nature of the data set: MIC, 2-fold broth dilution. It counts as cell-based. The note with it: WT. The method, then:
as §1

In data set [7] the test system is Pseudomonas aeruginosa PAO1. Put plainly: MIC, 2-fold broth dilution. Conditions: WT. It counts as cell-based. The protocol:
as §1

For the next data set, the system named is E. coli BW25113. Put plainly: MIC, 2-fold broth dilution, E. coli BW25113. It counts as cell-based, Escherichia coli. The note with it: Escherichia coli, E. coli BW25113.
In data set [8] the test system is Pseudomonas aeruginosa 273. Nature of the data set: MIC, 2-fold broth dilution. It counts as cell-based. Conditions: WT, clinical non MDR.
The next data set concerns Yersinia pestis KIM6+. Put plainly: microbe, parasite or virus in culture. In kind it is cell-based.
Data set [9] relates to Burkholderia thailandensis Δ2-Pore. Put plainly: microbe, parasite or virus in culture. It counts as cell-based.
Data set [10] deals with Staphylococcus aureus ATCC 25923. Nature of the data set: MIC, 2-fold broth dilution. It counts as cell-based. Conditions: ATCC25923, non MDR.
The subject of data set [11] is Staphylococcus aureus ATCC 700787. Nature of the data set: MIC, 2-fold broth dilution. In kind it is cell-based. Conditions: ATCC700787.
Data set [12] has as its system Pseudomonas aeruginosa 462. Put plainly: MIC, 2-fold broth dilution. The note with it: WT, clinical non MDR. In kind it is cell-based.
Data set [13] relates to Klebsiella oxytoca ATCC700324 Pore. Nature of the data set: MIC, permeabilized bacteria. It counts as cell-based.
Data set [14] relates to Pseudomonas aeruginosa BAA 2108. Put plainly: MIC, 2-fold broth dilution. Conditions: BAA2108. It counts as cell-based.
For data set [15], the system named is Pseudomonas aeruginosa MP 2019. Put plainly: MIC, 2-fold broth dilution. It counts as cell-based. Conditions: MP2019, WT, MDR.
Data set [16] relates to Acinetobacter baumannii Ab5075 ΔIJK. Put plainly: MIC, permeabilized bacteria. In kind it is cell-based.
The subject of data set [17] is Acinetobacter baumannii AYE. Put plainly: MIC, 2-fold broth dilution. In kind it is cell-based.
Data set [18] concerns Pseudomonas aeruginosa 515. Nature of the data set: MIC, 2-fold broth dilution. In kind it is cell-based. The note with it: WT, clinical non MDR.
A short description of data set [19]: Cytotoxicity assay (CellTiter AQueous One Solution, MTS). The note with it: human, HEK293 cells, 24 h incubation. It counts as cell-based. The protocol: Cytotoxicity of the compounds was evaluated using the CellTiter AQueous One Solution Cell Proliferation Assay (MTS; Promega) as previously described (2). HEK293 cells were incubated with a 2-fold serially diluted compounds for 24 h at 37° C. with 5% CO2, followed by addition of 20 μL of CellTiter AQueous and further incubated for 4 h at 37° C. The absorbance at 490 nm was recorded using a Tecan Spark 10 M plate reader. All measurements were done in three replicas. The growth curves were then fitted to a sigmoidal equation to determine the cytotoxicity concentration CC50.

Data set [20] deals with Acinetobacter baumannii AYE ΔB ΔIJK. Put plainly: MIC, permeabilized bacteria. In kind it is cell-based.
Data set [21] relates to Acinetobacter baumannii Ab5075. Nature of the data set: MIC, 2-fold broth dilution. It counts as cell-based.
Data set [22] relates to Acinetobacter baumannii ATCC17978 Δ3-Pore. Nature of the data set: MIC, permeabilized bacteria. In kind it is cell-based.
Data set [23] relates to Burkholderia thailandensis. Nature of the data set: microbe, parasite or virus in culture. In kind it is cell-based.
The mark [24] stands for this setting: asterisk in column 1-10, read-out: MIC, μM 1-10.
Setting [25] is: asterisk in column 10-50, read-out: MIC, μM 10-50.

Read-outs that look alike come from different tables or passages of the source.

Among the data in patent US20240116857A1 (St. Louis University, priority 2022, published 2024) are MIC and CC50 values, retold here.

A word on the CC50: it is the concentration that lowers cell viability or growth by half. A higher CC50 goes with better tolerance by the cells.

Turning to `C[n+]1ccc(Nc2ccc(NC(=O)c3ccc(-c4ccc(C(=O)Nc5ccc(Nc6cc[n+](C)cc6)cc5)cc4)cc3)cc2)cc1` [Example 17, 4,4′-(((([1,1′-biphenyl]-4,4′-dicarbonyl)bis(azanediyl))bis(4,1-phenylene))bis(azanediyl))bis(1-methylpyridin-1-ium)], the MIC was 0.2 µM in data set [1]; 6.2 µM in [2]; over 100 µM in data set [3]; 3.1 µM in [4]; 50 µM in data set [5]; 6.2 µM in data set [6]. The MIC in [7] is 6.2 µM; with E. coli BW25113 (asterisk in column <1, read-out: MIC, μM <1), under 1 µM; in data set [8], 12.5 µM; in the data set with Yersinia pestis KIM6+, 100 µM; in data set [9], 0.8 µM; in data set [10], 0.8 µM. For the same compound, the MIC is 0.4 µM in data set [11]; 12.5 µM in [12]; over 100 µM in data set [13]; over 100 µM in data set [14]; over 100 µM in data set [15]; 6.2 µM in [16]. For the same compound, the MIC in data set [17] was over 100 µM; in data set [18], over 100 µM; in data set [20], 0.2 µM; in data set [21] it was 12.5 µM; in data set [22] it was 0.8 µM; in [23] it was over 100 µM. The compound further returned a 50% cytotoxic concentration (CC50) at 24 h in data set [19] of over 1000 µM.

As for `C[n+]1ccc(Nc2ccc(NC(=O)c3ccc(C(=O)Nc4ccc(Nc5cc[n+](C)cc5)cc4)c(Cl)c3)cc2)cc1` [Example 20, 4,4′-((((2-chloroterephthaloyl)bis(azanediyl))bis(4,1-phenylene))bis(azanediyl))bis(1-methylpyridin-1-ium)], the MIC was found to be 0.2 µM in [1]; 3.1 µM in [2]; 25 µM in data set [3]; 12.5 µM in data set [4]; 12.5 µM in data set [5]; 12.5 µM in data set [6]. The MIC in data set [7] was 25 µM; in the data set with E. coli BW25113 (setting [24]) it was 1 to 10 µM; in data set [8], 12.5 µM; in the data set on Yersinia pestis KIM6+, 1.6 µM; in data set [9] it was 6.2 µM; in data set [10], 0.8 µM. The MIC was 1.6 µM in data set [11]; 12.5 µM in data set [12]; 25 µM in [13]; over 100 µM in [14]; 12.5 µM in data set [15]; 25 µM in data set [16]. Also, the MIC in data set [17] was 25 µM; in data set [18] it was 25 µM; in [20] it was 0.2 µM; in data set [21], 25 µM; in data set [22], 0.8 µM; in data set [23], over 100 µM. Besides, the CC50 at 24 h in data set [19] was over 1000 µM.

Regarding `C[n+]1ccc(Nc2ccc(NC(=O)c3ccc(C(=O)Nc4ccc(Nc5cc[n+](C)cc5)cc4)c([N+](=O)[O-])c3)cc2)cc1` [Example 25, 4,4′-((((2-nitroterephthaloyl)bis(azanediyl))bis(4,1-phenylene))bis(azanediyl))bis(1-methylpyridin-1-ium)], the MIC with E. coli BW25113 (setting [24]) lay in the range of 1 to 10 µM. This compound also had a 50% cytotoxic concentration (CC50) at 24 h in data set [19] of 350 µM.

As to `C[n+]1ccc(Nc2ccc(NC(=O)c3ccc(C(=O)Nc4ccc(Nc5cc[n+](C)cc5)cc4)c(N)c3)cc2)cc1` [Example 30, 4,4′-((((2-aminoterephthaloyl)bis(azanediyl))bis(4,1-phenylene))bis(azanediyl))bis(1-methylpyridin-1-ium)], the MIC in the data set with E. coli BW25113 (setting [24]) was in the range of 1 to 10 µM. The CC50 at 24 h in [19] was found to be 480 µM.

As for `COc1cc(NC(=O)c2ccc(-c3ccc(C(=O)Nc4ccc([N+](C)(C)C)c(OC)c4)cc3)cc2)ccc1[N+](C)(C)C` [Example 35, 4,4′-(([1,1′-biphenyl]-4,4′-dicarbonyl)bis(azanediyl))bis(2-methoxy-N,N,N-trimethylbenzenaminium)], in the data set with E. coli BW25113 (setting [25]), the MIC lay within 10 to 50 µM. The compound also yielded a CC50 at 24 h in data set [19] of 650 µM.

`C[N+](C)(C)c1ccc(NC(=O)c2ccc(-c3ccc(C(=O)Nc4ccc([N+](C)(C)C)c(Cl)c4)cc3)cc2)cc1Cl` [Example 39, 4,4′-(([1,1′-biphenyl]-4,4′-dicarbonyl)bis(azanediyl))bis(2-chloro-N,N,N-trimethylbenzenaminium)]: the MIC in the data set on E. coli BW25113 (setting [24]) was in the range of 1 to 10 µM. In [19], this compound gave a CC50 at 24 h of 330 µM.

On to `C[n+]1ccc(Nc2ccc(NC(=O)c3ccc(C(=O)Nc4ccc(Nc5cc[n+](C)cc5)cc4)c(OC(F)(F)F)c3)cc2)cc1` [Example 44, 4,4′-((((2-(trifluoromethoxy)terephthaloyl)bis(azanediyl))bis(4,1-phenylene))bis(azanediyl))bis(1-methylpyridin-1-ium)], for which the MIC in data set [1] turned out to be 0.4 µM; in data set [2], 3.1 µM; in [3], 100 µM; in data set [4], 25 µM; in data set [5], 25 µM; in [6], 50 µM. The MIC in data set [7] is 25 µM; with E. coli BW25113 (setting [24]), 1 to 10 µM; in data set [8], 25 µM; in the data set with Yersinia pestis KIM6+, 1.6 µM; in data set [9], 6.2 µM; in data set [10], 0.4 µM. The MIC in data set [11] was found to be 0.2 µM; in [12], 50 µM; in data set [13], 50 µM; in data set [14] it was 100 µM; in data set [15] it was 25 µM; in data set [16] it was 12.5 µM. Besides, the MIC is 25 µM in [17]; 50 µM in data set [18]; 0.1 µM in [20]; 25 µM in data set [21]; 0.4 µM in [22]; over 100 µM in [23]. Also, the half-maximal cytotoxic concentration (CC50) at 24 h in [19] amounted to 290 µM.

In the case of `C[n+]1ccc(Nc2ccc(NC(=O)c3ccc(C(=O)Nc4ccc(Nc5cc[n+](C)cc5)cc4)c(C(F)(F)F)c3)cc2)cc1` [Example 47], the MIC in the data set on E. coli BW25113 (setting [25]) lay in the range of 10 to 50 µM. The compound also gave a CC50 at 24 h in data set [19] of 350 µM.
